# In patent publication US20260286396A1, “AXL KNOCK OUT CAR T CELLS AND METHODS FOR USE THEREOF” (priority 2023, published 2026):
# Tested on: CART19 cells
# Assay: RNA sequencing of CART19 cells with Ingenuity pathway analysis (pathways, upstream regulators)
# Format: cell-based, human
# Method: CART19 cells were isolated using CD4 and CD8 microbeads to […] the JeKo-1 target cells; this isolation step was performed twice to eliminate the possible contamination of JeKo-1 cells. RNA was isolated from the CART19 cells using QIAGEN RNEASY® Plus Mini Kit. RNA was further treated with DNase I (QIAGEN) and purified using RNA Clean & Concentrator (Zymo Research). […] The fastq files were viewed in FastQC to check for quality (Cox et al., Mol Ther., 29 (4): 1529-1540, 2020). After verifying the lack of adapter sequences with FastQC, Cutadapt (Martin, EMBnet, 17:10-12, 2011) was used to filter for reads greater than 32 base pairs. Output files were re-checked for quality using FastQC. The latest human reference genome (GRCh38.p13) was downloaded from NCBI. Genome index files were generated using STAR (Cox et al. 2020, supra, and Dobin et al., Bioinformatics, 29:15-21, 2012). Paired end reads from fastq files were mapped to the genome for each condition. HTSeq was used to generate expression counts for each gene (Cox et al. 2020, supra; and Putri et al., Bioinformatics, 38:2943-2945, 2022). […] The disruption efficiency of the CRISPR/Cas9 GM-CSF knockout was determined using targeted sequencing through PCR and TIDE analysis (software available at tide.nki.nl) as described elsewhere (Sakemura et al. 2021, supra).
# RNA sequencing of CART19 cells was then performed. […] Data were analyzed with the use of QIAGEN Ingenuity Pathway Analysis (IPA) (digitalinsights.qiagen.com/IPA; Krämer et al., Bioinformatics 30 (4): 523-530, 2014).
# [1] = Upstream Regulator KLF11, 30 nM, 24 hours vs vehicle
# [2] = Upstream Regulator LAMA4, 30 nM, 24 hours vs vehicle
# [3] = Upstream Regulator LARP1, flag bias, 30 nM, 24 hours vs vehicle
# [4] = Upstream Regulator MFSD2A, 30 nM, 24 hours vs vehicle
# [5] = Upstream Regulator MSC, 30 nM, 24 hours vs vehicle
# [6] = Upstream Regulator MYC, 30 nM, 24 hours vs vehicle
# [7] = Upstream Regulator MYCN, 30 nM, 24 hours vs vehicle
# [8] = Upstream Regulator NELFB, 30 nM, 24 hours vs vehicle
# [9] = Upstream Regulator NFAT5, 30 nM, 24 hours vs vehicle
# [10] = Upstream Regulator NR3C1, 30 nM, 24 hours vs vehicle
# [11] = Upstream Regulator NT5E, 30 nM, 24 hours vs vehicle
# [12] = Upstream Regulator NUPR1, 30 nM, 24 hours vs vehicle
# [13] = Upstream Regulator PAX5, 30 nM, 24 hours vs vehicle
# [14] = Upstream Regulator PDGFB, 30 nM, 24 hours vs vehicle
# [15] = Upstream Regulator REL, 30 nM, 24 hours vs vehicle
# [16] = Upstream Regulator RXRB, 30 nM, 24 hours vs vehicle
# [17] = Upstream Regulator SATB1, 30 nM, 24 hours vs vehicle
# [18] = Upstream Regulator SHC1, 30 nM, 24 hours vs vehicle
# [19] = Upstream Regulator SMAD3, 30 nM, 24 hours vs vehicle
# [20] = Upstream Regulator STAT3, 30 nM, 24 hours vs vehicle
# [21] = Upstream Regulator STAT6, 30 nM, 24 hours vs vehicle
# [22] = Upstream Regulator STIM1, 30 nM, 24 hours vs vehicle
# [23] = Upstream Regulator SYK, 30 nM, 24 hours vs vehicle
# [24] = Upstream Regulator TAFAZZIN, 30 nM, 24 hours vs vehicle
# [25] = Upstream Regulator TCF3, 30 nM, 24 hours vs vehicle
# [26] = Upstream Regulator TCF12, 30 nM, 24 hours vs vehicle
# [27] = Upstream Regulator TCR, 30 nM, 24 hours vs vehicle
# [28] = Upstream Regulator TFRC, 30 nM, 24 hours vs vehicle
# [29] = Upstream Regulator TGF BETA, 30 nM, 24 hours vs vehicle
# [30] = Upstream Regulator TGFB2, 30 nM, 24 hours vs vehicle
# [31] = Upstream Regulator TIGIT, 30 nM, 24 hours vs vehicle
# [32] = Upstream Regulator TLR9, 30 nM, 24 hours vs vehicle
# [33] = Upstream Regulator TNF, 30 nM, 24 hours vs vehicle
# [34] = Upstream Regulator USP38, 30 nM, 24 hours vs vehicle
# [35] = Upstream Regulator ZBTB16, 30 nM, 24 hours vs vehicle
# [36] = upstream regulator ACE, CART19 stimulated with JeKo-1, 30 nM TP-0903 vs vehicle, 24 hours
# [37] = upstream regulator AMBRA1, CART19 stimulated with JeKo-1, 30 nM TP-0903 vs vehicle, 24 hours
# [38] = upstream regulator CCR2, CART19 stimulated with JeKo-1, 30 nM TP-0903 vs vehicle, 24 hours
# [39] = upstream regulator CIP2A, CART19 stimulated with JeKo-1, 30 nM TP-0903 vs vehicle, 24 hours
# [40] = upstream regulator ERBB3, CART19 stimulated with JeKo-1, 30 nM TP-0903 vs vehicle, 24 hours
# [41] = upstream regulator HGF, CART19 stimulated with JeKo-1, 30 nM TP-0903 vs vehicle, 24 hours
# [42] = upstream regulator IKBKG, CART19 stimulated with JeKo-1, 30 nM TP-0903 vs vehicle, 24 hours
# [43] = upstream regulator IL7, CART19 stimulated with JeKo-1, 30 nM TP-0903 vs vehicle, 24 hours
# [44] = upstream regulator PPARD, CART19 stimulated with JeKo-1, 30 nM TP-0903 vs vehicle, 24 hours
# [45] = upstream regulator SMAD4, CART19 stimulated with JeKo-1, 30 nM TP-0903 vs vehicle, 24 hours
compound,measurement,setting,value
"CN1CCN(Cc2ccc(Nc3ncc(Cl)c(Nc4ccccc4S(=O)(=O)N(C)C)n3)cc2)CC1 [TP-0903, Dubermatinib]",Expr Log Ratio,[1],−0.037
same,Predicted Activation State,[1],inhibited
same,Activation Z-Score,[2],2.985
same,Expr Log Ratio,[2],−1.478
same,Predicted Activation State,[2],activated
same,Expr Log Ratio,"Upstream Regulator LARP1, 30 nM, 24 hours vs vehicle",−0.22
same,Activation Z-Score,[3],3.461
same,Predicted Activation State,[3],activated
same,Expr Log Ratio,"Upstream Regulator MED12, 30 nM, 24 hours vs vehicle",0.075
same,Activation Z-Score,"Upstream Regulator MEK, 30 nM, 24 hours vs vehicle",−1.682
same,Activation Z-Score,[4],2.219
same,Expr Log Ratio,[4],−0.204
same,Predicted Activation State,[4],activated
same,Activation Z-Score,"Upstream Regulator MIR-34A-5P (AND OTHER MIRNAS W/SEED GGCAGUG), flag bias, 30 nM, 24 hours vs vehicle",0.22
same,Activation Z-Score,"Upstream Regulator MIR-155-5P (MIRNAS W/SEED UAAUGCU), flag bias, 30 nM, 24 hours vs vehicle",1.95
same,Activation Z-Score,"Upstream Regulator MIR-155, 30 nM, 24 hours vs vehicle",0.713
same,Activation Z-Score,[5],0.707
same,Expr Log Ratio,[5],0.103
same,Activation Z-Score,[6],−1.663
same,Expr Log Ratio,[6],−0.584
same,Activation Z-Score,[7],−2.592
same,Expr Log Ratio,[7],−0.217
same,Predicted Activation State,[7],inhibited
same,Activation Z-Score,[8],−1
same,Expr Log Ratio,[8],0.032
same,Activation Z-Score,[9],−0.466
same,Expr Log Ratio,[9],−0.006
same,Activation Z-Score,[10],0.182
same,Expr Log Ratio,[10],0.097
same,Activation Z-Score,[11],0.447
same,Expr Log Ratio,[11],0.513
same,Activation Z-Score,[12],0.396
same,Expr Log Ratio,[12],1.017
same,Activation Z-Score,[13],−1.01
same,Expr Log Ratio,[13],−0.607
same,Activation Z-Score,"Upstream Regulator PDGF BB, 30 nM, 24 hours vs vehicle",−0.275
same,Activation Z-Score,[14],−1.513
same,Expr Log Ratio,[14],0.018
same,Activation Z-Score,"Upstream Regulator PKA, 30 nM, 24 hours vs vehicle",−1.077
same,Activation Z-Score,"Upstream Regulator PKC(S), 30 nM, 24 hours vs vehicle",1.03
same,Expr Log Ratio,"Upstream Regulator POU2F2, 30 nM, 24 hours vs vehicle",−0.143
same,Activation Z-Score,"Upstream Regulator POU2F2, flag bias, 30 nM, 24 hours vs vehicle",−1
same,Activation Z-Score,[15],−0.988
same,Expr Log Ratio,[15],0.266
same,Activation Z-Score,[16],1.155
same,Expr Log Ratio,[16],−0.076
same,Activation Z-Score,[17],−1.359
same,Expr Log Ratio,[17],−0.104
same,Activation Z-Score,[18],0.963
same,Expr Log Ratio,[18],0.076
same,Activation Z-Score,[19],−1.454
same,Expr Log Ratio,[19],0.337
same,Activation Z-Score,[20],−1.117
same,Expr Log Ratio,[20],0.116
same,Activation Z-Score,[21],−2.16
same,Expr Log Ratio,[21],−0.088
same,Predicted Activation State,[21],inhibited
same,Activation Z-Score,[22],−3
same,Expr Log Ratio,[22],0.123
same,Predicted Activation State,[22],inhibited
same,Activation Z-Score,[23],−1.203
same,Expr Log Ratio,[23],−0.298
same,Activation Z-Score,[24],0
same,Expr Log Ratio,[24],−0.111
same,Activation Z-Score,[25],−0.213
same,Expr Log Ratio,[25],−0.061
same,Activation Z-Score,[26],−0.207
same,Expr Log Ratio,[26],0.077
same,Activation Z-Score,[27],−2.683
same,Predicted Activation State,[27],inhibited
same,Activation Z-Score,[28],2.335
same,Expr Log Ratio,[28],−0.051
same,Predicted Activation State,[28],activated
same,Activation Z-Score,[29],−2.031
same,Predicted Activation State,[29],inhibited
same,Activation Z-Score,[30],−1.591
same,Expr Log Ratio,[30],−1.361
same,Activation Z-Score,[31],−1.982
same,Expr Log Ratio,[31],0.2
same,Activation Z-Score,[32],−0.796
same,Expr Log Ratio,[32],−0.186
same,Activation Z-Score,[33],−2.543
same,Predicted Activation State,[33],inhibited
same,Expr Log Ratio,"Upstream Regulator TP53, 30 nM, 24 hours vs vehicle",0.089
same,Activation Z-Score,[34],−1.213
same,Expr Log Ratio,[34],−0.109
same,Activation Z-Score,[35],−0.683
same,Expr Log Ratio,[35],−0.061
same,Activation Z-Score,[36],1
same,Expr Log Ratio,[36],−1.023
same,Activation Z-Score,[37],1.808
same,Expr Log Ratio,[37],−0.003
same,Activation Z-Score,[38],0.314
same,Expr Log Ratio,[38],−1.545
same,Activation Z-Score,[39],0
same,Expr Log Ratio,[39],0.131
same,Activation Z-Score,[40],−1
same,Expr Log Ratio,[40],−1.599
same,Expr Log Ratio,"upstream regulator GPD1, CART19 stimulated with JeKo-1, 30 nM TP-0903 vs vehicle, 24 hours",0.348
same,Activation Z-Score,[41],−0.973
same,Expr Log Ratio,[41],−0.131
same,Activation Z-Score,[42],−0.788
same,Expr Log Ratio,[42],0.136
same,Activation Z-Score,[43],−0.288
same,Expr Log Ratio,[43],0.684
same,Activation Z-Score,"upstream regulator LET-7A-5P (AND OTHER MIRNAS W/SEED GAGGUAG), flag bias, CART19 stimulated with JeKo-1, 30 nM TP-0903 vs vehicle, 24 hours",1.25
same,Activation Z-Score,"upstream regulator NFKB (COMPLEX), CART19 stimulated with JeKo-1, 30 nM TP-0903 vs vehicle, 24 hours",−1.386
same,Activation Z-Score,"upstream regulator PI3K (COMPLEX), CART19 stimulated with JeKo-1, 30 nM TP-0903 vs vehicle, 24 hours",−1.952
same,Activation Z-Score,[44],−0.089
same,Expr Log Ratio,[44],−0.036
same,Activation Z-Score,"upstream regulator SCGB1A1, CART19 stimulated with JeKo-1, 30 nM TP-0903 vs vehicle, 24 hours",1.993
same,Activation Z-Score,[45],−0.02
same,Expr Log Ratio,[45],−0.097
same,Activation Z-Score,"upstream regulator TFPI2, CART19 stimulated with JeKo-1, 30 nM TP-0903 vs vehicle, 24 hours",1.131
